PMC3954431 (Molecular cancer therapeutics, 2013)

Assays:
[1] = tested on: W6/32 mAb (anti-human HLA class I antigen) binding; experiment: Competition of W6/32 mAb binding; type: cell-based; details: Fig. S2B
[2] = tested on: UN1 mAb binding to UN1-positive breast and gastric cancer tissues; experiment: Competition of UN1 mAb binding to cancer tissues; parameters: species or system human; details: Fig. S3
UN1 mAb = experiment: Surface plasmon resonance, UN1 mAb immobilized on CM5 chip; type: binding, murine; details: Biacore 3000, UN1 mAb immobilized on CM5 chip, peptide 0.1-2.5 mM
[3] = ELISA reactivity of immunized mice sera against scrambled peptide; type: in vivo; details: sera of phage-immunized Balb/c mice
[4] = ELISA reactivity of immunized mice sera against G23 peptide; type: in vivo; details: sera of phage-immunized Balb/c mice
[5] = Balb/c mice
wild type phage = experiment: ELISA reactivity of immunized mice sera against wild type phage; type: in vivo; details: sera of phage-immunized Balb/c mice
[6] = sera, days 7-10 from the 6th boost, 5 animals/group, colorimetric assay, mean ± SEM

| Sequence | competition of W6/32 mAb binding [1] | competition of UN1 mAb binding to breast and gastric cancer tissues [2] | SPR signal (UN1 mAb) | serum reactivity against scrambled peptide [3] | serum reactivity against G23 peptide [4] | health of immunized mice ([5]; 5 animals/group, i.p. phage immunization) | serum IL1-β, GSH and LDH levels versus normal ([5]; phage-immunized) | GSH [5, 6] [µM] | LDH [5, 6] [IU/L] | IL-1β ([5]; serum, days 7-10 from the 6th boost, 5 animals/group, ELISA, mean ± SEM) [pg/mL] | antibody response against the wild type phage (wild type phage) |
| --- | --- | --- | --- | --- | --- | --- | --- | --- | --- | --- | --- |
| SFAATPHTCKLLDECVPLWPAEG [G23] | did not compete the binding of W6/32 mAb | competed the binding of UN1 mAb to UN1-positive breast and gastric cancer tissues |  |  |  |  |  |  |  |  |  |
| TCLAPDVPEPLSHCWAGETFKLA [scrambled peptide] |  |  | failed to give the SPR signal |  |  |  |  |  |  |  |  |
| TPHTCKLLDECVPLW [phagotope 2/165] |  | competed the binding of UN1 mAb to UN1-positive breast and gastric cancer tissues |  | unreactive against the scrambled peptide | specific immune response against the UN1 mimotope G23 peptide | appeared healthy and did not show any ill-effect | in the range of normality | 10.1 ± 0.9 | 52.9 ± 15.4 | 58.2 ± 0.3 | strong and comparable antibody response against the wild type phage |
